Experiments:
[1] = human, serum
[2] = human
[3] = human; remark: listed apart in the source
[4] = human; remark: listed apart in the source
[5] = human; remark: listed apart in the source
[6] = human; remark: listed apart in the source
[7] = Highest frequency of moderate liver toxicity observed during clinical trials, expressed as a percentage. [column '% BIOL' in source]; conditions: human
[8] = human; remark: listed apart in the source
[9] = Times to onset, minimal and maximal, observed in the indexed observations. [column 'DELAI' in source]; conditions: human
[10] = human; remark: listed apart in the source
[11] = Presence of at least one case with successful reintroduction. [column 'REINT' in source]; conditions: human
[12] = human; remark: listed apart in the source
[13] = human, serum, 4383 h
[14] = human, serum; remark: listed apart in the source
[15] = human; remark: listed apart in the source
[16] = Highest frequency of acute liver toxicity observed during clinical trials, expressed as a percentage. [column '% AIGUE' in source]; conditions: human
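For Hepatotoxicity (association with vascular disease) in this document: count of indexed literature references reporting vascular liver injury in humans, e.g. peliosis hepatitis, hepatic veno-occlusive disease or Budd-Chiari syndrome.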
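For Hepatotoxicity (benign tumour) in this document: value is a count of indexed literature references citing a benign tumour confirmed by histopathology.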
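For Hepatotoxicity (choleostasis) in this document: human cholestatic liver injury, shown by histopathology or by peak ALT or AST elevation over alkaline phosphatase ratio below 2, value counts indexed literature reports.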
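For Hepatotoxicity (chronic liver disease) in this document: chronic liver injury confirmed by histopathology or persistently raised serum aminotransferase activity beyond 6 months, value given as the count of indexed literature references.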
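For Hepatotoxicity (cirrhosis) in this document: value is a count of indexed literature references reporting cirrhosis confirmed by histopathology.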
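For Hepatotoxicity (cytolytic) in this document: human cytolytic liver injury, shown by histopathology or by a ratio above 5 of peak ALT or AST elevation to alkaline phosphatase elevation, value counts indexed references.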
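For Hepatotoxicity (granulomatous hepatitis) in this document: value is a count of indexed literature references reporting granulomatous liver disease confirmed by histopathology.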
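For Hepatotoxicity (malignant tumour) in this document: malignant tumour confirmed by histopathology, value gives the count of indexed literature references reporting it.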
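For Hepatotoxicity (severe hepatitis) in this document: human clinical data: severe hepatitis, meaning potentially life-threatening liver failure or clinically observed cases, the value counts how many indexed literature references report it.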
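For Hepatotoxicity (steatosis) in this document: steatosis confirmed by histopathology, value is the count of indexed references.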

Compound	Hepatotoxicity (acute) [1]	Hepatotoxicity (malignant tumour) [2]	Hepatotoxicity (cytolytic) [3]	Hepatotoxicity (severe hepatitis) [4]	Hepatotoxicity (association with vascular disease) [5]	Hepatotoxicity (cirrhosis) [6]	Hepatotoxicity (moderate) [7] [%]	Hepatotoxicity (granulomatous hepatitis) [8]	Hepatotoxicity (time to onset) [9]	Hepatotoxicity (steatosis) [10]	Hepatotoxicity (successful reintroduction) [11]	Hepatotoxicity (choleostasis) [12]	Hepatotoxicity (chronic liver disease) [13]	Hepatotoxicity (moderate) [14]	Hepatotoxicity (benign tumour) [15]	Hepatotoxicity (acute) [16] [%]
O=C1C(O)=C([C@H]2CC[C@H](c3ccc(Cl)cc3)CC2)C(=O)c2ccccc21 [ATOVAQUONE]	2	0	2	0	0	0	16	0	10 days - 6 weeks	0	yes	0	0	9	0	5.3
CCc1c(C)[nH]c2c1C(=O)C(CN1CCOCC1)CC2 (configuration not stated) [MOLINDONE]	1	0	1	0	0	0	0	0	1 month	0	yes	1	0	2	0	0
CC(=O)S[C@@H]1CC2=CC(=O)CC[C@]2(C)[C@H]2CC[C@@]3(C)[C@@H](CC[C@@]34CCC(=O)O4)[C@H]12 [SPIRONOLACTONE]	3	0	3	0	0	0	0	0	6 weeks - 2 months	0	yes	3	0	0	0	0
PENTOSAN POLYSULFATE SODIUM	1	0	1	0	0	0	75	0	1 week - 2 weeks	0	yes	0	0	5	0	0
C[C@H]1C[C@@H]2[C@H]([C@@H](O)C[C@@]3(C)[C@H]2CC[C@]3(O)C(=O)CO)[C@@]2(C)C=CC(=O)C=C12 [METHYLPREDNISOLONE]	2	0	2	0	0	0	0	0	40 days	2	yes	0	0	0	0	0
N[C@@H](Cc1ccc(N(CCCl)CCCl)cc1)C(=O)O	2	0	0	0	2	0	8	0	6 days - 7 weeks	0	yes	1	0	1	0	0
CCCCc1nc(Cl)c(CO)n1Cc1ccc(-c2ccccc2-c2nn[nH]n2)cc1 [LOSARTAN]	5	0	4	1	0	0	20	0	2 weeks - 5 months	0	yes	0	1	11	0	0

From ChEMBL document CHEMBL3137667, “[Drug-induced liver injury; fourteenth updated edition of the bibliographic database of liver injuries and related drugs]” (Gastroenterol Clin Biol, 2004)
